Converted amounts (≈) assume the structure as drawn.
Legend:
Assay in all cases: Minimum inhibitory concentration, broth microdilution
Type in all cases: cell-based
[1] = tested on: Escherichia coli ATCC 2469
Source text: (§1) Bacterial cell lines and reagents. Escherichia coli ATCC 2452 (NDM-1, isolated in Pakistan) was New Delhi metallo-beta-lactamase (NDM-1) positive, blaNDM positive by PCR, and carbepenem-resistant (Imipenem and Ertapenem). Escherichia coli ATCC 2469 (1001728, isolated from human urine) was New Delhi metallo-beta-lactamase (NDM-1) positive, blaKPC negative and blaNDM positive by PCR, and Carbepenem-resistant (Imipenem and Ertapenem). Klebsiella pneumoniae (NR-41920, isolated in 2008 from human blood culture in Boston, Massachusetts, USA) was Carbapenem-resistant strain, blaKPC-3 positive by PCR, and resistant to amikacin, ampicillin/sulbactam, cefazolin, cefepime, ceftazidime, ceftriaxone, cefuroxime, ciprofloxacin, gentamicin, meropenem, piperacillin/tazobactam, tobramicin and trimethoprim/sulfamethoxazole. Pseudomonas aeruginosa (NR-50573, isolated in early 1970s from the blood of a burn patient at Mercy Hospital in Pittsburgh, Pennsylvania, USA) was resistant to rifampicin and susceptible to meropenem, ofloxacin, ceftazidime, amikacin, and tobramycin. 0.5 McFarland standard was purchased from ThermoFisher scientific (Waltham, MA, USA). Mueller-Hinton broth and tryptone soy agar plates were purchased from Becton, Dickinson and company (Franklin Lakes, New Jersey, USA).
(§2) Antimicrobial activities The minimum inhibitory concentrations (MICs) of the control antibiotics (gentamicin and imipenem), PMB, D-TZP and TZP against Escherichia coli, Klebsiella pneumoniae and Pseudomonas aeruginosa strains were determined by the broth microdilution method, according to guidelines outlined by the Clinical and Laboratory Standards Institute (CLSI)^18. The bacterial stains were grown aerobically overnight on tryptone soy agar plates at 37° C. Afterwards, a bacterial solution equivalent to 0.5 McFarland standard was prepared and diluted in cation-adjusted Mueller-Hinton broth (CAMHB) to achieve a bacterial concentration of ˜5×10^5 CFU/mL. The treatments were added in the first row of the 96-well plates and serially diluted with media containing bacteria. Plates were incubated aerobically at 37° C. for 16-18 hours.

[2] = tested on: Escherichia coli ATCC 2452
Source text: as §1, §2

[3] = tested on: Klebsiella pneumoniae NR-41920
Source text: as §1, §2

[4] = tested on: Pseudomonas aeruginosa NR-50573
Source text: as §1, §2

Molecule	Minimum inhibitory concentration (MIC) [1] [µg/mL]	Minimum inhibitory concentration (MIC) [2] [µg/mL]	Minimum inhibitory concentration (MIC) [3] [µg/mL]	Minimum inhibitory concentration (MIC) [4] [µg/mL]	MIC ([1]; ATCC2469) [µg/mL]	MIC ([2]; ATCC2452) [µg/mL]	MIC ([3]; NR41920) [µg/mL]	MIC ([4]; NR50573) [µg/mL]
gentamicin	>64	>64	64	1				
C[C@@H](O)[C@H]1C(=O)N2C(C(=O)O)=C(SCCN=CN)C[C@H]12 [Imipenem, imipenem]					16 (≈ 53.4 µM)	16 (≈ 53.4 µM)	8 (≈ 26.7 µM)	1 (≈ 3.34 µM)

— patent US11865158B2, “Process and composition matter of nanoparticle formulation for systemic treatment of sepsis” (PURDUE RESEARCH FOUNDATION, priority 2019, dated 2024)
